Active and inactive are the calls of the source. The rule behind the calls is not given here. Where only a bound is given, the exact number is not on record here.

In series [1] the target is Nuclear receptor ROR-alpha (→). Put plainly: Inverse agonist activity at GAL4-fused human RORa expressed in HEK293 cells assessed as suppression of basal transcriptional activity after 20 hrs by dual-glo luciferase reporter gene assay. On the technique in general: In a reporter assay the amount or activity of a reporter protein is the signal.
The test system of series [2] is HEK293. Put plainly: Selectivity ratio of EC50 for GAL4-fused human RORa expressed in HEK293 cells to EC50 for GAL4-fused human RORc expressed in HEK293 cells. The format is cell-based.
The test system of series [3] is HEK293. Put plainly: Selectivity ratio of EC50 for GAL4-fused human PXR expressed in HEK293 cells to EC50 for GAL4-fused human RORc expressed in HEK293 cells. The format is cell-based.
In series [4] the target is Nuclear receptor ROR-gamma. Put plainly: Inverse agonist activity at GAL4-fused human RORc expressed in HEK293 cells assessed as suppression of basal transcriptional activity after 20 hrs by dual-glo luciferase reporter gene assay.
The target of series [5] is T1, Nuclear receptor ROR-gamma (Homo sapiens, UniProt P51449).
T1 sequence (P51449 whole entry): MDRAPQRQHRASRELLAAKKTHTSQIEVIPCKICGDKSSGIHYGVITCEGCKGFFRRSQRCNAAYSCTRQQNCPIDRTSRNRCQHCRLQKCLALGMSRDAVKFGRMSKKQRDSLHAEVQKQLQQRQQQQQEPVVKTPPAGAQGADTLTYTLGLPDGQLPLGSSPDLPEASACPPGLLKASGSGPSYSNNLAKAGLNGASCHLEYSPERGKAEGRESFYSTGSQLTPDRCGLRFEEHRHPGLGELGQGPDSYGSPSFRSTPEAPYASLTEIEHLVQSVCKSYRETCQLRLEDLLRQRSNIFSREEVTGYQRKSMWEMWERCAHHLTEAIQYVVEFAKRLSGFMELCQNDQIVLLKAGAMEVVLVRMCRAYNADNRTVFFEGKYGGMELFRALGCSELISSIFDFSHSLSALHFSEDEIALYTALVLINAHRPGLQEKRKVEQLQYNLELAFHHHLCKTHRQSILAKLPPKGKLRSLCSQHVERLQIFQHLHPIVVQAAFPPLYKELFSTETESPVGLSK
The series can be described thus: Inverse agonist activity at N-terminal 6xHis-tagged human RORc ligand binding domain (241 to 486) expressed in bacterial expression system assessed as inhibition of SRC1 co-activator peptide recruitment after 3 hrs by TR-FRET analysis. The format is functional. On the technique in general: Time-resolved FRET reads energy transfer from a long-lived donor to a nearby acceptor.

The test system of series [6] is HEK293. The series can be described thus: Selectivity ratio of EC50 for GAL4-fused human FXR expressed in HEK293 cells to EC50 for GAL4-fused human RORc expressed in HEK293 cells. The format is cell-based.
Series [7] relates to HEK293. Put plainly: Selectivity ratio of EC50 for GAL4-fused human RORb expressed in HEK293 cells to EC50 for GAL4-fused human RORc expressed in HEK293 cells. The format is cell-based.
The target in a further series is T2, Bile acid receptor (Homo sapiens, UniProt Q96RI1).
T2 sequence (Q96RI1 whole entry): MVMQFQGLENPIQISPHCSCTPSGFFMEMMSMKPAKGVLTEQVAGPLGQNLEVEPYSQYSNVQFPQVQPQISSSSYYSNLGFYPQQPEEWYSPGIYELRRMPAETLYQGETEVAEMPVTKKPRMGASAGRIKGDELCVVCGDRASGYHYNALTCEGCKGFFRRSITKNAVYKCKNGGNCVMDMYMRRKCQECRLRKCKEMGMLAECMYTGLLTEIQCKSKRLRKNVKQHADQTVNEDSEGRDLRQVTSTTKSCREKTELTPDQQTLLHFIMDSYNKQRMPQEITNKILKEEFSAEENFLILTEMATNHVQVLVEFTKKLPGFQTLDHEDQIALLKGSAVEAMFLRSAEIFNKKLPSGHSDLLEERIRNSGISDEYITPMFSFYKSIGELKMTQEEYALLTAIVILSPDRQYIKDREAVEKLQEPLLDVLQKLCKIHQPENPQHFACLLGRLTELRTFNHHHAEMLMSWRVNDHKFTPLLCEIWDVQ
The series can be described thus: Antagonist activity at GAL4-fused human FXR expressed in HEK293 cells assessed as inhibition of T0901317-stimulated transcriptional activity after 20 hrs by dual-glo luciferase reporter gene assay. The format is cell-based.

Series [8] concerns HEK293. Put plainly: Selectivity ratio of EC50 for GAL4-fused human LXRbeta expressed in HEK293 cells to EC50 for GAL4-fused human RORc expressed in HEK293 cells. The format is cell-based.
The target in series [9] is T3, Nuclear receptor subfamily 1 group I member 2 (Homo sapiens, UniProt O75469).
T3 sequence (O75469 whole entry): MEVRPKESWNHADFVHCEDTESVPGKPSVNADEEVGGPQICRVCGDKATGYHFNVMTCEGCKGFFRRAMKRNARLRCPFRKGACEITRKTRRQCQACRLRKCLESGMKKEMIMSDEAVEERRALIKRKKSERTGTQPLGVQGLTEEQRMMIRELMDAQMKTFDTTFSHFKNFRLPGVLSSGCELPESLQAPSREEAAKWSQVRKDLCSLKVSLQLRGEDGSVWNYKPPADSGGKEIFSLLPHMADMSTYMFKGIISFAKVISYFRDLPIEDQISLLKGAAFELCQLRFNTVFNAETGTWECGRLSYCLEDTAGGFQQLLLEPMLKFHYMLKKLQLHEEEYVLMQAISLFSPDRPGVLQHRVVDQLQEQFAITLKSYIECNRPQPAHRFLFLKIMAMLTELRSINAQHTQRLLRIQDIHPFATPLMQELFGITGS
The series can be described thus: Antagonist activity at GAL4-fused human PXR expressed in HEK293 cells assessed as inhibition of T0901317-stimulated transcriptional activity after 20 hrs by dual-glo luciferase reporter gene assay. The format is cell-based.

The target in series [10] is T4, Nuclear receptor ROR-gamma (Homo sapiens) (UniProt P51449).
T4 sequence (whole entry): T1 sequence (P51449 whole entry)
Put plainly: Inverse agonist activity at N-terminal 6xHis-tagged human RORc ligand binding domain (241 to 486) expressed in bacterial expression system assessed as inhibition of SRC1 co-activator peptide recruitment after 3 hrs by TR-FRET analysis relative to apo-RORc ligand binding domain.

The subject of another series is MDCK. Put plainly: Efflux ratio of apparent permeability across apical to basolateral side over basolateral to apical side in MDCK cells at 100 uM after 60 mins by HPLC analysis. The format is ADME, cell-based, Canis lupus familiaris. As to conditions: dog, 1 h.
For series [11], the system named is HEK293. Put plainly: Selectivity ratio of EC50 for GAL4-fused human LXRalpha expressed in HEK293 cells to EC50 for GAL4-fused human RORc expressed in HEK293 cells. The format is cell-based.
Series [12] addresses T5, Bile acid receptor (Homo sapiens) (UniProt Q96RI1).
T5 sequence (whole entry): T2 sequence (Q96RI1 whole entry)
The series can be described thus: Agonist activity at GAL4-fused human FXR expressed in HEK293 cells assessed as activation of basal transcriptional activity up to 10 uM after 20 hrs by dual-glo luciferase reporter gene assay. The format is cell-based.

The test system of series [13] is PBMC. Put plainly: Cytotoxicity against human PBMC assessed as effect on cell physiology after 48 hrs by CellTiter-Glo assay. The format is cell-based. For orientation: ATP-based viability assays read luminescence as a measure of living cells.
Series [14] concerns PBMC. The series can be described thus: Inhibition of IL-17 production in human PBMC after 48 hrs by Sandwich ELISA. The format is functional, cell-based. The settings on record: for EC50: Homo sapiens, PBMC, 48 h.
The test system of series [15] is PBMC. The series can be described thus: Inhibition of IFNgamma production in human PBMC after 48 hrs by Sandwich ELISA. The format is functional, cell-based.

As to `O=C(Nc1ccc2c(c1)N(S(=O)(=O)c1ccc(F)cc1)CC2)c1c(F)cccc1F`, the EC50 in series [1] stood at 12 µM; in [4], 0.28 µM; in series [5], 0.086 µM; on Bile acid receptor, 4.2 µM; in series [9], 4.8 µM. The Ratio EC50 in the series on HEK293 [2] is 28; in the series with HEK293 [3], 15; in the series on HEK293 [6] it was 15; in the series on HEK293 [7], 28; with HEK293 [8], 15; in the series with HEK293 [11], 15. Also, the Efficacy in series [10] is -99%. Further, the Ratio with MDCK is below 2. Besides, in [12], the outcome was inactive.
In the case of `O=C(Nc1ccc2c(c1)N(S(=O)(=O)c1ccc(F)cc1)CCC2)c1c(F)cccc1Cl`, the EC50 is above 20 µM with PBMC [13]; 5.3 µM at Bile acid receptor; 2.1 µM in the series with PBMC [14]; 0.82 µM in [9]; above 20 µM with PBMC [15]. The “%max” value with PBMC [14] amounted to 63%. Further, in series [10], the Efficacy is -89%. In addition, the outcome in series [12] was inactive.
As to `O=C(Nc1ccc2c(c1)N(S(=O)(=O)c1ccc(F)cc1)CCC2)c1ccccc1Cl`, the EC50 at Bile acid receptor amounted to 5.9 µM; in series [9] it was 0.94 µM. Besides, in series [10], the Efficacy is -89%. Moreover, the outcome in series [12] was inactive.
Take `O=C(Nc1ccc2c(c1)N(S(=O)(=O)c1ccc(F)cc1)CCC2)c1c(F)cccc1F`: the EC50 in the series on PBMC [13] is above 20 µM; at Bile acid receptor, 7.6 µM; with PBMC [14], 1.4 µM; in series [9], 1.1 µM; in the series with PBMC [15], above 20 µM. The “%max” value in the series with PBMC [14] came to 78%. Also, the Efficacy in [10] is -99%. For the same molecule, in series [12], the outcome was inactive.

Usually EC50 stands for the concentration needed to bring the measured effect to its halfway point.

(Values after ChEMBL document CHEMBL3616373, “Identification of N-sulfonyl-tetrahydroquinolines as RORc inverse agonists” (Bioorg Med Chem Lett, 2015).)
